From US8933147B2, “Anti-microbial dental impression material” (3M Innovative Properties Company, priority 2005, dated 2015)

What was measured:
[1] = test system: Streptococcus mutans (DSM 20523); test: Laboratory model of impression taking: material set against filters loaded with Streptococcus mutans, rinsed, remaining growth on agar; assay type: cell-based; design: key: confluent growth, +++; many colonies, ++; few colonies, +; no growth, −; settings: Impregum Garant L DuoSoft
Protocol: (§1) A laboratory system was worked out that models the clinical procedure of impression taking with concomitant contamination of the material, the removal of the material from the mouth and the subsequent cleaning by a brief rinse under tap water. The remaining contamination was determined by microbiological methods:
(§2) Impression material was applied into sterile Petri dishes. Filters loaded with Streptococcus mutans (DSM 20523) or stimulated human saliva were contacted with the material during setting. A Strep. mutans concentration of approx. 5E9 CFU/ml was chosen which is similar to the microorganismsl number found salviva. After setting, the material was removed from the contaminated filter and briefly rinsed with sterile water.
(§3) Remaining microorganisms were transferred to agar plates and the plates were incubated anaerobically at 37° C. to allow for growth of surviving microorganisms. Microorganisms growth was recorded as confluent growth, +++; many colonies, ++; few colonies, +; no growth, −.

[2] = test system: salivary microorganisms; test: Laboratory model of impression taking: material set against filters loaded with stimulated human saliva, rinsed, remaining growth on agar; assay type: cell-based; design: key: confluent growth, +++; many colonies, ++; few colonies, +; no growth, −; settings: Impregum Garant L DuoSoft
Protocol: as §1, §2, §3

[3] = Chlorhexidine 1.5 % in cured paste
[4] = Chlorhexidine 3.6 % in cured paste

“chlorhexidine diacetate hydrate [CHX diacetate hydrate]” was tested, and the “Growth of S. mutans (initial conc. 5E9 CFU/ml)” value (from here on “Growth of S. mutans”) ([1]; Chlorhexidine 0.6-0.7 % in cured paste) was “−”, the “Growth of S. mutans” value ([1]; Chlorhexidine 0.8 % in cured paste) was “−” and the “Growth of S. mutans” value [1, 3] was “−”. The “Growth of S. mutans” value [1, 4] was “−”, the “Growth of S. mutans” value ([1]; Chlorhexidine <0.2 % in cured paste) was “+++” and the “Growth of salivary microorganisms (initial conc. 5E7 CFU/ml)” value [2, 3] was “−”. The “Growth of salivary microorganisms (initial conc. 5E7 CFU/ml)” value [2, 4] was “−”.
